The record followed here is patent publication EP0200565A2, “Method for production of peroxidase” (NISSIN FOOD PRODUCTS CO., LTD., priority 1985, dated 1986).

In the first assay the test system is peroxidase. The assay can be described thus: Activity of the isolated peroxidase towards various hydrogen donors. The class given is biochemical, Coprinus cinereus IFO 30116.
Settings: not given
Here is the method: Its action is shown by the followina reaction formula: [drawing 2] where AH2 is a hydrogen donor, and A is the oxidized hydrogen donor.
The enzyme was assayed for activity with respect to a variety of hydrogen donors.
Values snown in Taoie 2 are relative ones with that of phenol set at 100%.
Regarding `Cc1cc(-c2ccc(N)c(C)c2)ccc1N` [o-tolidine], the “Strength of Action” value is listed as 5400%.

The same assay, now with this note: relative values with that of phenol set at 100%; peroxidase of Coprinus cinereus IFO 30116.
On to `Oc1ccccc1O` [Catechol], for which the “Strength of Action” value came to 460%.

Consider `COc1ccccc1O` [Guaiacol], for which the “Strength of Action” value is 200%. On to `Oc1ccc(O)cc1` [Hydroquinone], for which the “Strength of Action” value amounted to 57%. Consider `Oc1ccccc1` [Phenol], for which the “Strength of Action” value is reported as 100 (%). On the same count and under the same terms, then `Oc1cccc(O)c1` [Resorcinol], with 0%; and `COc1cc(-c2ccc(N)c(OC)c2)ccc1N` [o-dianisidine], with 5400%. Still for that read-out and setting: then `Oc1cccc2ccccc12` [α-naphthol], with 1200%; and δ-hydroquinon, with 57%.
